# Assay results: article PMC3955178, “Structural characterization of a hypothetical protein: a potential agent involved in trimethylamine metabolism in Catenulispora acidiphila” (Journal of Structural and Functional Genomics, 2014)
# T1: Caci_0382 (Catenulispora acidiphila, UniProt C7PVH9)
# T1 construct: homodimer
# T1 sequence (C7PVH9 1-134): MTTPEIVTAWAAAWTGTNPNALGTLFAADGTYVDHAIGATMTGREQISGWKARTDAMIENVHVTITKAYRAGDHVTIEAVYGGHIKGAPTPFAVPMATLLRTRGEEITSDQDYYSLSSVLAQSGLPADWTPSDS
# B1: Caci_0382 from Catenulispora acidiphila DSM 44928 (natural protein)
# chain: T1 sequence (C7PVH9 1-134)
# modifications: selenomethionine-labeled
# notes: Caci_0382, hypothetical protein of the NTF2-like family, Catenulispora acidiphila DSM 44928; the gene encodes a 134 amino-acid protein of 14.3 kDa; Subcloned in the pMCSG57 vector, which adds a 6 His-Tag at the N-terminus; 131 Calpha atoms per subunit were aligned between the two crystal forms; also called hypothetical protein Caci_0382
# Assays:
# [1] = target: T1, Caci_0382; experiment: fluorescence thermal shift (Sypro Orange); type: binding; settings: read-out: Tm shift at 0.1 mM
# [2] = target: T1, Caci_0382; experiment: fluorescence thermal shift (Sypro Orange); type: binding; settings: 20 mM Hepes pH 7.5, 150 mM NaCl; 14 μM protein; printed as Tm but evidently the Tm shift; unit and concentration not given; in °C (unit assumed)
# [3] = target: the molecule itself; experiment: SEC; gel-filtration chromatography, data not shown
molecule,measurement,setting,value
"CN(C)C [TMA, trimethylamine]",ΔTm at 100 µM,[1],3 °C
c1c[nH]cn1 [Imidazole],Tm,[2],10.26
B1,stoichiometry N,[3],2
